Values quoted from earlier work, collected in PMC4806784 (Investigational new drugs, 2015).
Like-named read-outs stand apart in the source and are kept apart here.

Conditions: 60 mg/m^2 q 3 week, cited from earlier work
[1] = chemotherapy-naïve elderly patients with advanced non-small cell lung cancer, ref a more recent trial
[2] = metastatic breast cancer, second line

SMILES: CC(=O)O[C@@]12CO[C@@H]1C[C@H](O)[C@@]1(C)C(=O)[C@H](O)C3=C(C)[C@@H](OC(=O)[C@H](O)[C@@H](NC(=O)OC(C)(C)C)c4ccccc4)C[C@@](O)([C@@H](OC(=O)c4ccccc4)[C@H]21)C3(C)C [docetaxel]
- incidence of Grade 3 to 4 neutropenia [1]: 89%
- incidence of febrile neutropenia [1]: 15%
- incidence of Grade 3 to 4 neutropenia [2]: 76%
- incidence of febrile neutropenia [2]: 5%
